We go through 2 compounds from patent US20050208549A1, “Testing endosymbiont cellular organelles and compounds identifiable therewith” (priority 2000, published 2005).

For data set [1] the following is noted: Peripheral atrophy, Lipodystrophy; d4T > others; cited from earlier work.
Data set [2] has as its system peripheral blood mononuclear cells (PBMCs). Kind of data set: NASBA ratio of mitochondrial RNA to chromosome-encoded RNA in cultured PBMCs. The data set is classed as cell-based, human (healthy blood donor). Particulars: culture period of five days, 6 μM and 60 μM. The method, then:
(§1) In Table 1, the primers and probes used in the examples are summarized. Standard NASBA nucleic acid amplification reactions were performed in a 20 μl reaction volume and contained: 40 mM Tris-pH 8.5, 70 mM KCl, 12 mM MgCl2, 5 mM dithiothreitol, 1 mM dNTPs (each), 2 mM rNTPs (each), 0.2 μM primer (each), 0.05 μM molecular beacon, 375 mM sorbitol, 0.105 μg/μl bovine serum albumin, 6.4 units AMV RT, 32 units T7 RNA polymerase, 0.08 units RNAse H and input nucleic acid. The complete mixture, except the enzymes, sorbitol and/or bovine serum albumin was, prior to adding the enzyme mixture, heated to 65° C. for two minutes in order to denature any secondary structure in the RNA and to allow the primers to anneal. After cooling the mixture to 41° C., the enzymes were added. The amplification took place at 41° C. for 90 minutes in a fluorimeter (CytoFluor 2000) and the fluorescent signal was measured every minute (using the filter set 530/25 nm and 485/30 nm). For amplification of DNA target sequences, the 65° C. denaturation step was replaced with a 95° C. denaturation step for two to five minutes.
To achieve quantification, a dilution series of target sequences for a particular primer set was amplified and the time points at which the reactions became positive (the time to positivity, TTP) were plotted against the input amounts of nucleic acid. This way a calibration curve was created that could be used to read TTP values of reactions with unknown amounts of input and deduce the input amount.
Cells (fibroblasts and PBMCs) were cultured under standard conditions in standard media known to persons skilled in the art with the addition of drugs or putative toxic or stimulating compounds as defined in the examples. […] A small aliquot of the isolated nucleic acid was analyzed on an agarose gel and the remainder stored at −80° C. until further analysis. […]

In data set [3] the test system is Fibroblast cells. Nature of the data set: NASBA ratio of mitochondrial RNA to chromosome-encoded RNA in cultured fibroblast cells. The data set is classed as cell-based. Particulars: culture period of four weeks, antiviral drugs at 3 μM and 30 μM. The procedure: as §1, with “For amplification of DNA target sequences, the 65° C. denaturation step was replaced with a 95° C. denaturation step for two to five minutes.” left out
(§2) To achieve quantification, a dilution series of target sequences for a particular primer set was amplified and the time points at which the reactions became positive (the time to positivity, TTP) were plotted against the input amounts of nucleic acid. This way a calibration curve was created that could be used to read TTP values of reactions with unknown amounts of input and deduce the input amount. […]

The subject of data set [4] is Fibroblast cells. Kind of data set: NASBA ratio of mitochondrial RNA to chromosomal DNA in cultured fibroblast cells. The data set is classed as cell-based. The following applies: culture period of four weeks, antiviral drugs at 3 μM and 30 μM. The procedure:
as §1, with “For amplification of DNA target sequences, the 65° C. denaturation step was replaced with a 95° C. denaturation step for two to five minutes.” left out
as §2

The test system of data set [5] is Fibroblast cells. Nature of the data set: NASBA ratio of mitochondrial DNA to chromosomal DNA in cultured fibroblast cells. Particulars: culture period of four weeks, antiviral drugs at 3 μM and 30 μM. The data set is classed as cell-based. The method, then: as §1, with “For amplification of DNA target sequences, the 65° C. denaturation step was replaced with a 95° C. denaturation step for two to five minutes.” left out
as §2

The subject of data set [6] is Fibroblast cells. Nature of the data set: NASBA ratio of chromosome-encoded RNA to chromosomal DNA in cultured fibroblast cells. The data set is classed as cell-based. The following applies: culture period of four weeks, antiviral drugs at 3 μM and 30 μM. The method, then: as §1, with “For amplification of DNA target sequences, the 65° C. denaturation step was replaced with a 95° C. denaturation step for two to five minutes.” left out
as §2

Data set [7] deals with Fibroblast cells. Nature of the data set: NASBA ratio of mitochondrial RNA to mitochondrial DNA in cultured fibroblast cells. Particulars: culture period of four weeks, antiviral drugs at 3 μM and 30 μM. The data set is classed as cell-based. The method, then:
as §1, with “For amplification of DNA target sequences, the 65° C. denaturation step was replaced with a 95° C. denaturation step for two to five minutes.” left out
as §2

`Cc1cn([C@H]2C=C[C@@H](CO)O2)c(=O)[nH]c1=O` [D4T]: the “Rate (%) of mitochondrial toxicity, affected organ Fat” value in data set [1] is given as 50%. The “change in ratio of mitochondrial RNA to chromosome-encoded RNA” value in data set [2] is “no measurable change”.

Consider `CC[n+]1c(-c2ccccc2)c2cc(N)ccc2c2ccc(N)cc21` [ethidium bromide], for which the “change in mitochondrial RNA to chromosome-encoded RNA ratio” value in the data set on Fibroblast cells [3] is listed as “decline in mitochondrial RNA content”. In addition, in the data set on Fibroblast cells [4], the “change in mitochondrial RNA to chromosomal DNA ratio” value is listed as “decline in mitochondrial RNA content”. Further, in the data set with Fibroblast cells [5], the “change in mitochondrial DNA to chromosomal DNA ratio” value is “decline in mitochondrial DNA content”. Besides, the “change in ratio of chromosome-encoded RNA and chromosomal DNA” value in the data set with Fibroblast cells [6] was “no measurable change”. In addition, the “change in mitochondrial RNA to mitochondrial DNA ratio” value in the data set on Fibroblast cells [7] was “decline in mitochondrial RNA and DNA content”.
